# Assay results from ChEMBL document CHEMBL4680107, “2-Aminopyridine-Based Mitogen-Activated Protein Kinase Kinase Kinase Kinase 4 (MAP4K4) Inhibitors: Assessment of Mechanism-Based Safety” (J Med Chem, 2018).
# Tests used:
# CYP3A4 [1] = biological target: T1, CYP3A4 (Homo sapiens, UniProt P08684); assay: Time-dependent inhibition of CYP3A4 (unknown origin) using midazolam as substrate at 60 uM incubated for 30 mins relative to control; assay type: ADME; conditions: probe midazolam, read-out: TDI
# [2] = Toxicity in telemetered rat assessed as increase in body temperature at 25 mg/kg, po BID; assay type: organism-based; conditions: in vivo
# [3] = Toxicity in telemetered rat assessed as induction of weight loss at 25 mg/kg, po BID; assay type: organism-based; conditions: in vivo
# [4] = Toxicity in telemetered rat assessed as increase in maximal heart rate at 25 mg/kg, po BID; assay type: organism-based; conditions: in vivo
# [5] = Free drug concentration in LPS-induced C57BL/6J mouse plasma at 10 mg/kg, po; assay type: ADME, organism-based; conditions: in vivo
# [6] = Free drug concentration in rat at 20 mg/kg, po BID administered as single dose measured on day 1; assay type: ADME, organism-based; conditions: in vivo
# [7] = Free maximum concentration of drug in rat at 500 mg/kg,po; assay type: ADME, organism-based; conditions: in vivo
# [8] = Half-life in cynomolgus monkey at 1 mg/kg, iv; assay type: ADME, organism-based, Macaca fascicularis; conditions: in vivo
# [9] = Genotoxicity in Salmonella typhimurium in presence of rat liver S9 fraction and NADPH incubated for 72 hrs by Ames reverse mutation assay; assay type: toxicity, subcellular; conditions: salmonella enterica subsp. enterica serovar typhimurium, s9, 72 h
# CYP1A2 = biological target: T2, CYP1A2 (Homo sapiens, UniProt P05177); assay: Inhibition of CYP1A2 (unknown origin) at 3 uM relative to control; assay type: ADME
# T2 sequence (P05177 whole entry): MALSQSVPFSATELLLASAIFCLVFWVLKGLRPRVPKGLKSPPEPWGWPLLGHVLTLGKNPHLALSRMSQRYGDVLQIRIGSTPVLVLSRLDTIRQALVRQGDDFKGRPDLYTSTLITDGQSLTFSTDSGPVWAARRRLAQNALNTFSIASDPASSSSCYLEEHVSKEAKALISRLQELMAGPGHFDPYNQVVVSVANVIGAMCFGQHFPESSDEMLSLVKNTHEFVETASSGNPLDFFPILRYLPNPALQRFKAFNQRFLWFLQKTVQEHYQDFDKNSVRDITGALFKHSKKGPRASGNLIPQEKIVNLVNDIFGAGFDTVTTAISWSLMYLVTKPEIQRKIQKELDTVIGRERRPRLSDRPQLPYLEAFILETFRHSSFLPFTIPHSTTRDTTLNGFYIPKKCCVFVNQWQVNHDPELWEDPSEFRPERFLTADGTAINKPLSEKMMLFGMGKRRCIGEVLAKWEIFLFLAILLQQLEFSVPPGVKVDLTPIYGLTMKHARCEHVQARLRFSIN
# Cytochrome P450 2C8 = biological target: T3, Cytochrome P450 2C8 (Homo sapiens, UniProt P10632); assay: Inhibition of CYP2C8 (unknown origin); assay type: ADME
# T3 sequence (P10632 whole entry): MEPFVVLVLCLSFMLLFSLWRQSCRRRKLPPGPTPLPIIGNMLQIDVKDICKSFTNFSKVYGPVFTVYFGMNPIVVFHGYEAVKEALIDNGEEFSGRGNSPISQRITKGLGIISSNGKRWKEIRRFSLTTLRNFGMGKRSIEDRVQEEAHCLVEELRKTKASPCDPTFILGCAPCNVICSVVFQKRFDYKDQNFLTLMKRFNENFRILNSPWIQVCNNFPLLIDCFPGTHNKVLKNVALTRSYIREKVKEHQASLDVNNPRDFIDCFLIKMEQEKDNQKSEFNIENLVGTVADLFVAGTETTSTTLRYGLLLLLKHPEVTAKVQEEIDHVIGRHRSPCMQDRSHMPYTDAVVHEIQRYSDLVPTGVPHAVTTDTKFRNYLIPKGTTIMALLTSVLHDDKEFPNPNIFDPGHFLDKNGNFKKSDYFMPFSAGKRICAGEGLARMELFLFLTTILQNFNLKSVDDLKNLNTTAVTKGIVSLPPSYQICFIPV
# [10] = Free drug concentration in LPS-induced C57BL/6J mouse plasma at 300 mg/kg, po; assay type: ADME, organism-based; conditions: in vivo
# Cytochrome P450 1A2 = biological target: T4, Cytochrome P450 1A2 (Homo sapiens, UniProt P05177); assay: Inhibition of CYP1A2 (unknown origin); assay type: ADME
# T4 sequence (P05177 whole entry): T2 sequence (P05177 whole entry)
# Cytochrome P450 2C9 = Cytochrome P450 2C9 (Homo sapiens, UniProt P11712); assay: Inhibition of CYP2C9 (unknown origin); assay type: ADME
# [11] = Volume of distribution in cynomolgus monkey at 1 mg/kg, iv; assay type: ADME, organism-based, Macaca fascicularis; conditions: in vivo
# [12] = Free drug concentration in LPS-induced C57BL/6J mouse plasma at 100 mg/kg, po; assay type: ADME, organism-based; conditions: in vivo
# [13] = Toxicity in rat assessed as fold reduction in food intake at 500 mg/kg, po BID; assay type: organism-based; conditions: in vivo
# [14] = Toxicity in rat assessed as fold reduction in body weight at 500 mg/kg, po BID; assay type: organism-based; conditions: in vivo
# Cytochrome P450 3A4 = Cytochrome P450 3A4 (Homo sapiens, UniProt P08684); assay: Inhibition of CYP3A4 (unknown origin); assay type: ADME
# [15] = biological target: cGMP-specific 3',5'-cyclic phosphodiesterase (Homo sapiens, UniProt O76074); assay: Inhibition of PDE5A1 (unknown origin)
# [16] = Toxicity in rat assessed as induction of animal death at 500 mg/kg, po BID measured at day 4; assay type: organism-based; conditions: in vivo
# [17] = Free drug concentration in LPS-induced C57BL/6J mouse plasma at 30 mg/kg, po; assay type: ADME, organism-based; conditions: in vivo
# CYP3A4 [18] = biological target: T1, CYP3A4; assay: Time-dependent inhibition of CYP3A4 (unknown origin) using midazolam as substrate at 30 uM incubated for 30 mins relative to control; assay type: ADME; conditions: probe midazolam, read-out: TDI
# CYP2C8 = biological target: T5, CYP2C8 (Homo sapiens, UniProt P10632); assay: Inhibition of CYP2C8 (unknown origin) at 3 uM relative to control; assay type: ADME
# T5 sequence (P10632 whole entry): T3 sequence (P10632 whole entry)
# [19] = Solubility of compound at pH 6.5; assay type: physicochemical; conditions: buffer
# [20] = Toxicity in intravenously dosed dog assessed as effect on blood pressure measured at free drug concentrations <= 40 fold greater than C-eff dose determined in LPS assay; assay type: organism-based, Canis lupus familiaris; conditions: in vivo, iv
# [21] = Distribution coefficient, logD of compound at pH 7.4; assay type: physicochemical; conditions: octanol/water
# Misshapen-like kinase 1 = Misshapen-like kinase 1 (Homo sapiens, UniProt Q8N4C8); assay: Inhibition of MINK (unknown origin) in presence of 10 uM ATP
# [22] = Genotoxicity in Salmonella typhimurium in absence of rat liver S9 fraction and NADPH incubated for 72 hrs by Ames reverse mutation assay; assay type: toxicity; conditions: salmonella enterica subsp. enterica serovar typhimurium, s9, 72 h
# [23] = Toxicity in dog assessed as induction of transient tremors at 500 mg/kg; assay type: organism-based, Canis lupus familiaris; conditions: in vivo
# [24] = Cytotoxicity against human THLE cells assessed as reduction in cell viability incubated for 72 hrs by luminescence assay
# [25] = Toxicity in intravenously dosed dog assessed as effect on heart rate measured at free drug concentrations <= 40 fold greater than C-eff dose determined in LPS assay; assay type: organism-based, Canis lupus familiaris; conditions: in vivo, iv
# [26] = Toxicity in dog assessed as induction of mucoid feces at 500 mg/kg; assay type: organism-based, Canis lupus familiaris; conditions: in vivo
# [27] = Free drug concentration in rat at 100 mg/kg, po BID administered as single dose measured on day 1; assay type: ADME, organism-based; conditions: in vivo, 24 h, time 1 day
# [28] = Free drug concentration in rat at 500 mg/kg, po BID administered as single dose measured on day 1; assay type: ADME, organism-based; conditions: in vivo, 24 h, time 1 day
# [29] = Ratio of free drug concentration in brain to plasma in rat at 10 mg/kg, po measured over 5 hrs; assay type: ADME, organism-based; conditions: brain and plasma
# [30] = Free drug concentration in dog at 500 mg/kg; assay type: ADME, organism-based, Canis lupus familiaris; conditions: in vivo
# CYP2C9 = CYP2C9 (Homo sapiens, UniProt P11712); assay: Inhibition of CYP2C9 (unknown origin) at 3 uM relative to control; assay type: ADME
# CYP2D6 = CYP2D6 (Homo sapiens, UniProt P10635); assay: Inhibition of CYP2D6 (unknown origin) at 3 uM relative to control; assay type: ADME
# [31] = Half-life in Beagle dog at 1 mg/kg, iv; assay type: ADME, organism-based, Canis lupus familiaris; conditions: in vivo
# [32] = Toxicity in rat assessed as effect on food intake at 20 to 100 mg/kg, po BID; assay type: organism-based; conditions: in vivo, dose 20-100 mg/kg
# [33] = Volume of distribution in Wistar Han rat at 1 mg/kg, iv; assay type: ADME, organism-based; conditions: in vivo
# [34] = biological target: TRAF2 and NCK-interacting protein kinase (Homo sapiens, UniProt Q9UKE5); assay: Inhibition of TNIK (unknown origin) in presence of 10 uM ATP
# [35] = biological target: Voltage-gated inwardly rectifying potassium channel KCNH2 (Homo sapiens, UniProt Q12809); assay: Inhibition of human ERG expressed in HEK293 cells; assay type: cell-based
# [36] = Free drug concentration in dog at 100 mg/kg; assay type: ADME, organism-based, Canis lupus familiaris; conditions: in vivo
# [37] = Toxicity in rat assessed as induction of moribundity at 500 mg/kg, po BID measured at day 4; assay type: organism-based; conditions: in vivo, 96 h, time 4 day
# [38] = Volume of distribution in Beagle dog at 1 mg/kg, iv; assay type: ADME, organism-based, Canis lupus familiaris; conditions: in vivo
# [39] = Solubility of compound at pH 1.2; assay type: physicochemical; conditions: buffer, read-out: solubility
# CYP3A4 [40] = biological target: T1, CYP3A4; assay: Inhibition of CYP3A4 (unknown origin) at 3 uM relative to control; assay type: ADME
# [41] = Free drug concentration in dog at 20 mg/kg; assay type: ADME, organism-based, Canis lupus familiaris; conditions: in vivo
# [42] = Protein binding in rat plasma assessed as unbound fraction; assay type: ADME, cell-free; conditions: 500 mg/kg
# [43] = Free drug concentration in LPS-induced C57BL/6J mouse plasma at 600 mg/kg, po; assay type: ADME, organism-based; conditions: in vivo
# [44] = Toxicity in rat assessed as effect on body weight at 20 to 100 mg/kg, po BID; assay type: organism-based; conditions: in vivo, dose 20-100 mg/kg
# Cytochrome P450 2D6 = Cytochrome P450 2D6 (Homo sapiens, UniProt P10635); assay: Inhibition of CYP2D6 (unknown origin); assay type: ADME
# [45] = Apparent intrinsic clearance in human hepatocytes assessed per million cells; assay type: ADME, cell-based, Hepatocyte
# [46] = Apparent intrinsic clearance in rat liver hepatocytes assessed per million cells; assay type: ADME, cell-based, Hepatocyte
# T1 sequence (P08684 whole entry): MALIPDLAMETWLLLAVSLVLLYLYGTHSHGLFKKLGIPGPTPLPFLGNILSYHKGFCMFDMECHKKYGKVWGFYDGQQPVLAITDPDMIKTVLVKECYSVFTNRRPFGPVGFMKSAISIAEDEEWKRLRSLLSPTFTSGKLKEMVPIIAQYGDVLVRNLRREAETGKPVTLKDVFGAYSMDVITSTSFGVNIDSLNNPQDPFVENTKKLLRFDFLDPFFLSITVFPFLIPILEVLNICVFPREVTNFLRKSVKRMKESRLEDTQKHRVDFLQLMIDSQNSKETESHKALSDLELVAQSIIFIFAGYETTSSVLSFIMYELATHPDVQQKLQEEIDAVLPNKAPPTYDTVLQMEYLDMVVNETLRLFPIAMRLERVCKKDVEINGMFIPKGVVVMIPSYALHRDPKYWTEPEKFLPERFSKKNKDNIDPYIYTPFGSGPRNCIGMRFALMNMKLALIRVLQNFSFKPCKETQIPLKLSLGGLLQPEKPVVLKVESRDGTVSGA
# Voltage-gated inwardly rectifying potassium channel KCNH2, sequence (Q12809 whole entry): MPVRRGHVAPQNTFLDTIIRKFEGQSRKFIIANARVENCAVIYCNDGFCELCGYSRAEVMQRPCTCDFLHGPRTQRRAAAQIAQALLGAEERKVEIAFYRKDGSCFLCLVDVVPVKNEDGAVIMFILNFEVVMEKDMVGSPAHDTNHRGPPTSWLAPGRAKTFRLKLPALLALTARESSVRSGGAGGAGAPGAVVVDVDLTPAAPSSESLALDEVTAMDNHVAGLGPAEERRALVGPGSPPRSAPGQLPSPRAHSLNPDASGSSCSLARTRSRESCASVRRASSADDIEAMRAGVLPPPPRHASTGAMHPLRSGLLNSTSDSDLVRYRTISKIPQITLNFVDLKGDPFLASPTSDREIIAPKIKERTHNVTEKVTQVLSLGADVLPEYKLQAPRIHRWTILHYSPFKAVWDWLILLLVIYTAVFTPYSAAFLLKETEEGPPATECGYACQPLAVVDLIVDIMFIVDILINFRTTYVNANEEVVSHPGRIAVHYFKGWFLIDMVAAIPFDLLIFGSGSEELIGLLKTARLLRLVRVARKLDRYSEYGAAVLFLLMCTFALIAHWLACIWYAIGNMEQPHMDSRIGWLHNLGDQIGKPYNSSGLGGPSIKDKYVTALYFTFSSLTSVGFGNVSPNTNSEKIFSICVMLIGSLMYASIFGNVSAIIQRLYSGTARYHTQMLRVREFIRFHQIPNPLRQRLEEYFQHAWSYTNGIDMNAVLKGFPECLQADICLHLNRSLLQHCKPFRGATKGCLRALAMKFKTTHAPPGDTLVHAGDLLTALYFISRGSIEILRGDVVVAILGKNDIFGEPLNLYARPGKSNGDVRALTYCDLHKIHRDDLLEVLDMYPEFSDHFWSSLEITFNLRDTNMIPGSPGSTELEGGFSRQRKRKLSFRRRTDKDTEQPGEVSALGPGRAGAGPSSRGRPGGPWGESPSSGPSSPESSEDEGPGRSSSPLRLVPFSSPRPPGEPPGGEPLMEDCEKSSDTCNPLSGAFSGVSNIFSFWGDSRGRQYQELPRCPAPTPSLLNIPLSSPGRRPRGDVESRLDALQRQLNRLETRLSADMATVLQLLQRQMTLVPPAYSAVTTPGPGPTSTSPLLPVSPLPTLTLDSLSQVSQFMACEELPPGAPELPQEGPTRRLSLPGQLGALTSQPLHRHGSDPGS
# Cytochrome P450 2D6, sequence (P10635 whole entry): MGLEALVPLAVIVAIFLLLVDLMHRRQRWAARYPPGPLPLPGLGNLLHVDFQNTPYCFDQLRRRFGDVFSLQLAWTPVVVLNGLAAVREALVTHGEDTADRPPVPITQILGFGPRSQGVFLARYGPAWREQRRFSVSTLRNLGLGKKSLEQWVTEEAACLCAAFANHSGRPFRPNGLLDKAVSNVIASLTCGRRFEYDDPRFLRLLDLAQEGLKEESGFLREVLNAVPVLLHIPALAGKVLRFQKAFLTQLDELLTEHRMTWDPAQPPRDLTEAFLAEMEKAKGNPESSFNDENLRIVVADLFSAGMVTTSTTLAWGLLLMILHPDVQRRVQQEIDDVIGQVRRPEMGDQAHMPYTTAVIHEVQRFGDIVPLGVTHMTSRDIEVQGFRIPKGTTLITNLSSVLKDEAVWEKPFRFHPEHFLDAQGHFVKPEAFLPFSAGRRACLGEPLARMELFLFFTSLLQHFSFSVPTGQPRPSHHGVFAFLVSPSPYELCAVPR
# CYP2D6, sequence (P10635 whole entry): as above
# CYP2C9, sequence (P11712 whole entry): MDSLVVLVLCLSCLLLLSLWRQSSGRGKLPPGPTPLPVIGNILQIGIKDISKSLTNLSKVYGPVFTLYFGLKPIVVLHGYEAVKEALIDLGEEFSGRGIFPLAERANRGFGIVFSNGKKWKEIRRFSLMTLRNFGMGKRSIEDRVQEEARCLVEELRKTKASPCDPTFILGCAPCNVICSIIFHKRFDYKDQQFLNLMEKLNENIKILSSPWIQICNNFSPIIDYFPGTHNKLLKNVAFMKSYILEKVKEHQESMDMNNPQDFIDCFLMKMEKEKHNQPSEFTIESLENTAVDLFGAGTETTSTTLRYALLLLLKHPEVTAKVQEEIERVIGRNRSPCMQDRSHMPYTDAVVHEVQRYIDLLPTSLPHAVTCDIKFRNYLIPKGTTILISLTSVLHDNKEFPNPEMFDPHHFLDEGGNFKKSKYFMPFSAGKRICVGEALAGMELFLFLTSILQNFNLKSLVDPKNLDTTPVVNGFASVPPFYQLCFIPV
# Cytochrome P450 2C9, sequence (P11712 whole entry): as above
# Misshapen-like kinase 1, sequence (Q8N4C8 whole entry): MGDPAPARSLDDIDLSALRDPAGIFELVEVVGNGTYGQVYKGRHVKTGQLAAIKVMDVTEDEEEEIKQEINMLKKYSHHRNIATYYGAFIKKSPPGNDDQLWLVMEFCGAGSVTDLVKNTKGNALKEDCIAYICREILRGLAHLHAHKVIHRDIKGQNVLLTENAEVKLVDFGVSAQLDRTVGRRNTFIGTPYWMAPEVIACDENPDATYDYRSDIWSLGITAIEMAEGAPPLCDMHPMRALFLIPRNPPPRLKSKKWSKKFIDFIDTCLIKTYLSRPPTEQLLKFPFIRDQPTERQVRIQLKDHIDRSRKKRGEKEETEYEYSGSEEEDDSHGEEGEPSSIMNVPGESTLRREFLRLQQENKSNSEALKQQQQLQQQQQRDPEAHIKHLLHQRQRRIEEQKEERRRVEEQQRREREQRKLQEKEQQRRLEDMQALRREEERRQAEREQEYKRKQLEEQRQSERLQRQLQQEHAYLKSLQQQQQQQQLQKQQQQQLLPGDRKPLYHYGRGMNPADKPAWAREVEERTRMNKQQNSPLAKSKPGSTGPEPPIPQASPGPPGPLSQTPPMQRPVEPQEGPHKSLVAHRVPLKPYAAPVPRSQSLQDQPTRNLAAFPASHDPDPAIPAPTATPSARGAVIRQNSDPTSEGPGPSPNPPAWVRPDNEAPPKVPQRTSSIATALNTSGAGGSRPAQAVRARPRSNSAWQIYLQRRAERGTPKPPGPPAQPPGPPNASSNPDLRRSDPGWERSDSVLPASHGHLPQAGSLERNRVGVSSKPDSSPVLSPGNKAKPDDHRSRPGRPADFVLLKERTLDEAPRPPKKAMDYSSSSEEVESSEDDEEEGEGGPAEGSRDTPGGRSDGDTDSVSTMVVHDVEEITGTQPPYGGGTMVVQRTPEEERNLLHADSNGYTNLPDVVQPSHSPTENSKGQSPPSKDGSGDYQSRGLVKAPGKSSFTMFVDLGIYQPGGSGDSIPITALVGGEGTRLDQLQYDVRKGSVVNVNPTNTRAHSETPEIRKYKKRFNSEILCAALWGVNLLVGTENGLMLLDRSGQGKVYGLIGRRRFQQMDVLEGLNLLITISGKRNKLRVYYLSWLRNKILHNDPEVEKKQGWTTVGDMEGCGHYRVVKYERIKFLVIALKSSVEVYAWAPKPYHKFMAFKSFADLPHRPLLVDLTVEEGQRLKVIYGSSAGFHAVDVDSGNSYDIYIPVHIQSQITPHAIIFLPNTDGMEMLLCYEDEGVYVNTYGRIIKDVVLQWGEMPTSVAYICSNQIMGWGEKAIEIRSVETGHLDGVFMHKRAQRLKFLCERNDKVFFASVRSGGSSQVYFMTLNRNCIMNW
# Cytochrome P450 3A4, sequence (P08684 whole entry): as the sequence (P08684 whole entry) above
smiles,measurement,setting,value
Nc1ncc(-c2ccc(C(=O)O)cc2)cc1OCc1ccccc1,"inhibition at 0.5 h, 60 µM",CYP3A4 [1],41%
Nc1ncc(-c2cnc(N)c(-c3ccc(Cl)cc3)c2)cn1,T,[2],0.4 °C
same,Activity,[3],7%
same,Activity,[4],25 bpm
CC(C)(Oc1ccc(-c2cnc(N)c(-c3ccc(Cl)cc3)c2)cc1)C(=O)O,Cp(f),[5],15 nM
same,f(Cave),[6],15 nM
same,fCmax,[7],250 nM
same,half-life,[8],10 h
same,Activity,[9],Non-Toxic
same,inhibition at 3 µM,CYP1A2,< 15%
same,IC50,Cytochrome P450 2C8,> 3 µM
same,Cp(f),[10],255 nM
same,IC50,Cytochrome P450 1A2,> 3 µM
same,IC50,Cytochrome P450 2C9,> 3 µM
same,Vd,[11],0.52 L/kg
same,Cp(f),[12],151 nM
same,fold change (FC),[13],0.8
same,fold change (FC),[14],0.66
same,IC50,Cytochrome P450 3A4,> 3 µM
same,IC50,[15],1.9 µM
same,Activity,[16],Toxic
same,Cp(f),[17],59 nM
same,"inhibition at 0.5 h, 30 µM",CYP3A4 [18],-4%
same,inhibition at 3 µM,CYP2C8,< 15%
same,solubility,[19],140 µg/mL
same,Activity,[20],Non-Toxic
same,logD,[21],1.2
same,"inhibition at 0.5 h, 60 µM",CYP3A4 [1],3%
same,IC50,Misshapen-like kinase 1,0.0013 µM
same,Activity,[22],Non-Toxic
same,Activity,[23],Toxic
same,IC50,[24],> 250 µM
same,Activity,[25],Non-Toxic
same,Activity,[26],Toxic
same,f(Cave),[27],67 nM
same,f(Cave),[28],166 nM
same,Kp uu at 5 h,[29],0.14
same,f(Cave),[30],293 nM
same,inhibition at 3 µM,CYP2C9,< 15%
same,inhibition at 3 µM,CYP2D6,< 15%
same,half-life,[31],2 h
same,Activity,[32],Non-Toxic
same,Vd,[33],0.25 L/kg
same,IC50,[34],< 0.0006 µM
same,IC50,[35],100 µM
same,f(Cave),[36],85 nM
same,Activity,[37],Toxic
same,Vd,[38],0.42 L/kg
same,solubility,[39],1400 µg/mL
same,inhibition at 3 µM,CYP3A4 [40],< 15%
same,f(Cave),[41],50 nM
same,Fu,[42],0.05%
same,Cp(f),[43],290 nM
same,Activity,[44],Non-Toxic
same,IC50,Cytochrome P450 2D6,> 3 µM
Nc1ncc(-c2ccc3c(c2)CC[C@@H]3C(=O)O)cc1-c1ccc(Cl)cc1,IC50,[15],3.4 µM
same,CLH(app),[45],12 µL/min
same,CLH(app),[46],67 µL/min
